The target of experiment [1] is T1, Organic anion transporter 3 (Homo sapiens, UniProt Q8TCC7).
T1 sequence (Q8TCC7 whole entry): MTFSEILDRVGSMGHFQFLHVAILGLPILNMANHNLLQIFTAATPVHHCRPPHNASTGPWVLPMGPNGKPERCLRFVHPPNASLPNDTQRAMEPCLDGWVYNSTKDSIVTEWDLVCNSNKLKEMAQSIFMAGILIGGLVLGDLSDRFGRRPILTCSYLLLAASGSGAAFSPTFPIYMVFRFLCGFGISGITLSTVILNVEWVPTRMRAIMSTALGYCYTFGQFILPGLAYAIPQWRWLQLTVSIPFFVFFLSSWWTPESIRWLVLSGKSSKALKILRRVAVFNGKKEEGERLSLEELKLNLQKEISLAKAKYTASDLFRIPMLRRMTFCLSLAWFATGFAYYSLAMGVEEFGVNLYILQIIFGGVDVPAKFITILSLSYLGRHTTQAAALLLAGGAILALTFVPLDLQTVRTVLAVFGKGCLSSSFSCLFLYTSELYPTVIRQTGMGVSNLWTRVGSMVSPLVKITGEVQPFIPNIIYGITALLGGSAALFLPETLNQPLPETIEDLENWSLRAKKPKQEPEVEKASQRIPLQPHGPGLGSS
Description: TP_TRANSPORTER: inhibition of E1S uptake in OAT3 expressing oocytes.

Experiment [2] concerns the target T2, Solute carrier family 22 member 2 (Homo sapiens, UniProt O15244).
T2 sequence (O15244 whole entry): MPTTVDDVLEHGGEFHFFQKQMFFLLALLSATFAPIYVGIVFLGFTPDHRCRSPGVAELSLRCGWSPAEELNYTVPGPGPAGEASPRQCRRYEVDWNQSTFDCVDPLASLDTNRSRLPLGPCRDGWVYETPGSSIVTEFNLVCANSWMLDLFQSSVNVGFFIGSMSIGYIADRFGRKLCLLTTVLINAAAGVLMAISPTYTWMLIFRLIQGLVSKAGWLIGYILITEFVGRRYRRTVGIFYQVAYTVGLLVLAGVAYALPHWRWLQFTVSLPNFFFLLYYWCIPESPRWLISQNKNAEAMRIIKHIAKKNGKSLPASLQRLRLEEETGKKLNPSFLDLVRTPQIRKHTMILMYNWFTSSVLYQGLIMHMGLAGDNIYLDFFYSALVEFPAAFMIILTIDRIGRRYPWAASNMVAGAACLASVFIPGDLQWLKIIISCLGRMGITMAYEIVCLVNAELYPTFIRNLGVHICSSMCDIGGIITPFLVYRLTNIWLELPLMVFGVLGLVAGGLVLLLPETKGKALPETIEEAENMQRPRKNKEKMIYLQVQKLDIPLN
Description: TP_TRANSPORTER: inhibition of TEA uptake in OCT2 expressing oocytes.

Take `NC(N)=Nc1nc(CSCCC(N)=NS(N)(=O)=O)cs1` [FAMOTIDINE]: the Ki – broadly, the equilibrium dissociation constant of an inhibitor or competing ligand from its target – in experiment [1] was 300 µM; in experiment [2], 1800 µM.

`CN/C(=N/CCSCc1nc[nH]c1C)NC#N` [CIMETIDINE]: the Ki in experiment [1] amounted to 53 µM; in experiment [2], 57 µM.

For the origin of these results see ChEMBL document CHEMBL2074288 (Eur J Pharmacol, 2004).
